Laboratory results from patent publication US9708323B2, “Tricyclic compounds as alpha-7 nicotinic acetylcholine receptor ligands” (BRISTOL-MYERS SQUIBB COMPANY, priority 2014, dated 2017).
pEC50: −log10 of the molar value.

These compounds were tested against T1, α-7 nicotinic ACh receptor ion channel expressed in HEK 293 cells (Rattus norvegicus, UniProt Q05941) (assay: Ca2+-sensitive, fluorescence-based assay for α-7 nicotinic acetylcholine receptor channel function in mammalian cells (FLIPR)). Conditions: Table 1, agonist Ca2+ flux, read-out: FLIPR α7 (EC50).
T1 construct: expressed in transfected cells
T1 sequence (Q05941 23-502): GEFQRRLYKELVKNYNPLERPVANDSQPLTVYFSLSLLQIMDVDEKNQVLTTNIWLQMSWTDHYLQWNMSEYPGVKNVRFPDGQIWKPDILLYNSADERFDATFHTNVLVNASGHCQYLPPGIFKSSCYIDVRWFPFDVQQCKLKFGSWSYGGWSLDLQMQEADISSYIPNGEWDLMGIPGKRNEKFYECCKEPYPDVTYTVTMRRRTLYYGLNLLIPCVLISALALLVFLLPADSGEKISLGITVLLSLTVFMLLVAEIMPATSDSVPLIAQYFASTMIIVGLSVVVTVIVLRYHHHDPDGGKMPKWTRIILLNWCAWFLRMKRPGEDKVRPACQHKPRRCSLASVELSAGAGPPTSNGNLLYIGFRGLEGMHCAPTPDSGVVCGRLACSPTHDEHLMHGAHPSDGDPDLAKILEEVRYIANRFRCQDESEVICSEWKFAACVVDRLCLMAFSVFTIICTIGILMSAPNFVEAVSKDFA
Assay type: cell-based
Description: II) A Ca^2+-Sensitive, Fluorescence-Based Assay α-7 for Nicotinic Acetylcholine Receptor Channel Function in Mammalian Cells (“FLIPR”). Summary:
Lead compounds are evaluated for agonist activity at α-7, α3β4, α4αβ2, and α1β1δ1ε sub-types of nicotinic ACh receptor ion channels expressed in mammalian HEK 293 cells. Agonist potency and efficacy values are determined from kinetic fluorescence Ca^2+ influx measurements made using a 384 well FLIPR (Fluorescence Image Plate Reader). The utility of fluorescent indicators for measuring changes in intracellular divalent cation concentrations, particularly Ca^2+, for drug discovery endeavors is well documented (Rudiger, R., et al., Nature Reviews, 2003, 4:579-586; Gonzalez J. E., et al., Receptors and Channels, 2002, 8:283-295). In this assay, channel expressing HEK cell lines seeded in 384 well assay plates are loaded with a membrane permeant fluorescent Ca^2+ indicator dye, whose 510 nm green emission signal increases in response to elevation of intracellular Ca^2+ concentration. The basal fluorescence from the cells is monitored in real time, followed by the acute addition of test compounds. If the compound is an agonist at any of the non-selective cation channels, the latter open and allow the movement of extracellular Ca^2+ ions into the cell cytoplasm, where they bind to the Ca^2+ indicator dye, and produce an increase in fluorescence output signal, which is detected by a cooled CCD imaging camera.
Reagents: The acetomethoxy (AM) ester of the Ca^2+ indicator dye Fluo-4 was obtained from InVitrogen, (Carlsbad, Calif.). Acetylcholine and all buffer constituents were purchased from Sigma Chemical Company, St. Louis, Mo. G418 and Minimal Essential Medium were purchased from InVitrogen Life Technologies, Carlsbad, Calif. Fetal bovine serum was purchased from (InVitrogen, Carlsbad, Calif.).
HEK-293 cells were grown in Minimal Essential Medium containing 10% (v/v) fetal bovine serum at 37° C. in a 5% CO2 incubator. HEK-293 cells stably expressing the ion channels were grown in the same medium with the addition of 500 μg/ml G418.
HEK-293 cells expressing the ion channels of interest were plated in 384 well, black-walled, clear-bottomed, poly-D-lysine coated plates at a density of ˜20,000 cells/well in 20 μl of Minimal Essential Medium containing 10% (v/v) fetal bovine serum and incubated for 2 days at 29° C. in a 5% CO2 incubator. Prior to assay, cells were loaded with the Fluo-4 AM ester. Cell loading was accomplished by removing the culture medium and replacing it with 30 μl/well of the AM ester of the dye (5 μM) mixed with Hanks Balanced Salt Solution (#14175-095) containing 20 mM HEPES, 2.5 mM probenecid, 0.5 mM CaCl2, 1 mM MgCl2 and 10 μM atropine. Dye loading was allowed to proceed for 90 minutes at room temperature at which time the dye loading solution was removed and replaced with 40 μl/well of Hanks buffer. Cells loaded with dye were loaded onto a FLIPR384 (Molecular Devices, Sunnyvale, Calif.). Fluo-4 dye was excited using the 488 nm line of an argon laser. Emission was filtered using a 540+/−30 nm bandpass filter. For evaluation of the effects of test compounds using the Ca^2+ flux assay, compounds to be tested were provided in assay ready plates. For nicotinic receptor ion channel expressing cells, the assay was initiated by the addition of 20 μl/well of Hanks buffer containing test compounds. For all assays, data were collected at 1 Hz for 10 seconds (baseline), at which time the compound containing stimulus buffers are added, and further measurements collected at 0.33 Hz for 3 min.
The statistical robustness of the nicotinic receptor Ca^2+ flux assays is determined from blanks and totals wells. The totals wells define maximal channel activation for each compound test plate (Maximum efficacious dose of acetylcholine), and the blanks wells which contain matched DMSO only, define zero channel activation. […]
O=C(c1cc2cccc(Cl)c2s1)N1CC2CN3CCC2C1C3 (stereo not shown) [Example 1, (7-chlorobenzo[b]thiophen-2-yl)(hexahydro-3,6-methanopyrrolo[2,3-c]pyridin-1(2H)-yl)methanone] gave a pEC50 of 5.77. Work on O=C(c1n[nH]c2ccccc12)N1CC2CN3CCC2C1C3 (stereo not shown) [Example 2, (hexahydro-3,6-methanopyrrolo[2,3-c]pyridin-1(2H)-yl)(1H-indazol-3-yl)methanone] yielded a pEC50 of 6.60. In the case of O=C(c1ccccc1)N1CC2CN3CCC2C1C3 (stereo not shown) [Example 3, (hexahydro-3,6-methanopyrrolo[2,3-c]pyridin-1(2H)-yl)(phenyl)methanone], the pEC50 was less than 4.00. O=C(c1ccc(Br)o1)N1CC2CN3CCC2C1C3 (stereo not shown) [Example 7] was tested, and the pEC50 was less than 4.00. O=C(c1sccc1Cl)N1CC2CN3CCC2C1C3 (stereo not shown) [Example 26] showed a pEC50 of less than 4.00. With O=C(c1cccc(Cl)n1)N1CC2CN3CCC2C1C3 (stereo not shown) [Example 35] the pEC50 was less than 4.00. For O=C(c1cc(Cl)ccn1)N1CC2CN3CCC2C1C3 (stereo not shown) [Example 37], the pEC50 was less than 4.00. For O=C(c1cc(Br)c(Br)s1)N1CC2CN3CCC2C1C3 (stereo not shown) [Example 51], the pEC50 was less than 4.00. With O=C(c1sc2cc(F)ccc2c1Cl)N1CC2CN3CCC2C1C3 (stereo not shown) [Example 52] the pEC50 was less than 4.00. Compound Cn1nc2ccccc2c1C(=O)N1CC2CN3CCC2C1C3 (stereo not shown) [Example 54] has a pEC50 of less than 4.00. O=C(c1c[nH]c2ncccc12)N1CC2CN3CCC2C1C3 (stereo not shown) [Example 55] gave a pEC50 of less than 4.00. For O=C(c1cc(Br)no1)N1CC2CN3CCC2C1C3 (stereo not shown) [Example 56], the pEC50 was less than 4.00. For O=C(c1cc(Br)c(Br)o1)N1CC2CN3CCC2C1C3 (stereo not shown) [Example 57], the pEC50 was less than 4.00. In the case of CC(C)c1cc(C(=O)N2CC3CN4CCC3C2C4)on1 (stereo not shown) [Example 58], the pEC50 was less than 4.00. Work on O=C(c1cc(Br)cs1)N1CC2CN3CCC2C1C3 (stereo not shown) [Example 59] yielded a pEC50 of less than 4.00. COc1cc(Br)cc2cc(C(=O)N3CC4CN5CCC4C3C5)oc12 (stereo not shown) [Example 60] was tested, and the pEC50 was less than 4.00. In the case of O=C(c1cc(-c2ccccc2)no1)N1CC2CN3CCC2C1C3 (stereo not shown) [Example 62], the pEC50 was less than 4.00. Cc1cc(C(=O)N2CC3CN4CCC3C2C4)on1 (stereo not shown) [Example 64] showed a pEC50 of less than 4.00. With Cc1c(Br)csc1C(=O)N1CC2CN3CCC2C1C3 (stereo not shown) [Example 65] the pEC50 was less than 4.00. For O=C(c1cc(-c2ccccc2)cs1)N1CC2CN3CCC2C1C3 (stereo not shown) [Example 66], the pEC50 was less than 4.00. Compound O=C(c1sc2ccccc2c1Cl)N1CC2CN3CCC2C1C3 (stereo not shown) [Example 67] has a pEC50 of less than 4.00. Work on Cc1ccc2c(Cl)c(C(=O)N3CC4CN5CCC4C3C5)sc2c1 (stereo not shown) [Example 68] yielded a pEC50 of less than 4.00. O=C(c1cc(-c2ccc(Br)cc2)cs1)N1CC2CN3CCC2C1C3 (stereo not shown) [Example 69] was tested, and the pEC50 was less than 4.00. Compound Cc1cc(C(=O)N2CC3CN4CCC3C2C4)oc1C (stereo not shown) [Example 70] has a pEC50 of less than 4.00. Work on O=C(c1cc2ccc(Cl)cc2s1)N1CC2CN3CCC2C1C3 (stereo not shown) [Example 71] yielded a pEC50 of less than 4.00. O=C(c1cc2c(C(F)(F)F)cccc2s1)N1CC2CN3CCC2C1C3 (stereo not shown) [Example 72] gave a pEC50 of less than 4.00. In the case of O=C(c1cc2nccnc2s1)N1CC2CN3CCC2C1C3 (stereo not shown) [Example 75], the pEC50 was less than 4.00. Compound O=C(c1snc(Cl)c1Cl)N1CC2CN3CCC2C1C3 (stereo not shown) [Example 76] has a pEC50 of less than 4.00. Work on O=C(c1ccns1)N1CC2CN3CCC2C1C3 (stereo not shown) [Example 78] yielded a pEC50 of less than 4.00. For O=C(c1sc2cccc(Cl)c2c1Cl)N1CC2CN3CCC2C1C3 (stereo not shown) [Example 79], the pEC50 was less than 4.00. For O=C(c1c[nH]c2ncc(Br)cc12)N1CC2CN3CCC2C1C3 (stereo not shown) [Example 80], the pEC50 was 4.42. O=C(c1noc2ccccc12)N1CC2CN3CCC2C1C3 (stereo not shown) [Example 81] was tested, and the pEC50 was 5.10. For O=C(c1onc2ccccc12)N1CC2CN3CCC2C1C3 (stereo not shown) [Example 82], the pEC50 was less than 4.00. CSc1sc(C(=O)N2CC3CN4CCC3C2C4)c2c1C=CCC2 (stereo not shown) [Example 83] showed a pEC50 of less than 4.00. O=C(c1cc(-c2ccc(Cl)cc2)cs1)N1CC2CN3CCC2C1C3 (stereo not shown) [Example 84] gave a pEC50 of less than 4.00. In the case of O=C(c1sc2cccc(F)c2c1Cl)N1CC2CN3CCC2C1C3 (stereo not shown) [Example 85], the pEC50 was less than 4.00. Cc1c(C(=O)N2CC3CN4CCC3C2C4)sc2ccc(Cl)cc12 (stereo not shown) [Example 86] was tested, and the pEC50 was less than 4.00.

Same assay, conditions: Table 2, agonist Ca2+ flux, read-out: FLIPR α7 (EC50)
O=C(c1n[nH]c2ccccc12)N1C[C@H]2C[N@]3CC[C@H]2[C@H]1C3 [Example 88, ((3R,3aR,6S,7aS)-hexahydro-3,6-methanopyrrolo[2,3-c]pyridin-1(2H)-yl)(1H-indazol-3-yl)methanone] showed a pEC50 of 6.41. O=C(c1cc2ccccc2s1)N1C[C@H]2C[N@]3CC[C@H]2[C@H]1C3 [Example 89, benzo[b]thiophen-2-yl((3R,3aR,6S,7aS)-hexahydro-3,6-methanopyrrolo[2,3-c]pyridin-1(2H)-yl)methanone] showed a pEC50 of 4.74. Cn1nc(C(=O)N2C[C@H]3C[N@]4CC[C@H]3[C@H]2C4)c2ccccc21 [Example 90, ((3R,3aR,6S,7aS)-hexahydro-3,6-methanopyrrolo[2,3-c]pyridin-1(2H)-yl) (1-methyl-1H-indazol-3-yl)methanone] was tested, and the pEC50 was less than 4.00. With Cn1cc(C(=O)N2C[C@H]3C[N@]4CC[C@H]3[C@H]2C4)c2ccccc21 [Example 91, ((3R,3aR,6S,7aS)-hexahydro-3,6-methanopyrrolo[2,3-c]pyridin-1(2H)-yl)(1-methyl-1H-indol-3-yl)methanone] the pEC50 was less than 4.00. O=C(c1n[nH]c2ccc(Cl)cc12)N1C[C@H]2C[N@]3CC[C@H]2[C@H]1C3 [Example 92, ((3R,3aR,6S,7aS)-hexahydro-3,6-methanopyrrolo[2,3-c]pyridin-1(2H)-yl)(5-chloro-1H-indazol-3-yl)methanone] gave a pEC50 of 6.15. COc1ccc2c(C(=O)N3C[C@H]4C[N@]5CC[C@H]4[C@H]3C5)n[nH]c2c1 [Example 93, ((3R,3aR,6S,7aS)-hexahydro-3,6-methanopyrrolo[2,3-c]pyridin-1(2H)-yl)(6-methoxy-1H-indazol-3-yl)methanone] was tested, and the pEC50 was 5.66. O=C(c1cc2c(Cl)cccc2s1)N1C[C@H]2C[N@]3CC[C@H]2[C@H]1C3 [Example 94, 4-chlorobenzo[b]thiophen-2-yl((3R,3aR,6S,7aS)-hexahydro-3,6-methanopyrrolo[2,3-c]pyridin-1(2H)-yl)methanone] was tested, and the pEC50 was less than 4.00. COc1cccc2[nH]nc(C(=O)N3C[C@H]4C[N@]5CC[C@H]4[C@H]3C5)c12 [Example 95, ((3R,3aR,6S,7aS)-hexahydro-3,6-methanopyrrolo[2,3-c]pyridin-1(2H)-yl)(4-methoxy-1H-indazol-3-yl)methanone] showed a pEC50 of less than 4.00. With O=C(c1cc2cccc(Cl)c2s1)N1C[C@H]2C[N@]3CC[C@H]2[C@H]1C3 [Example 96, 7-chlorobenzo[b]thiophen-2-yl((3R,3aR,6S,7aS)-hexahydro-3,6-methanopyrrolo[2,3-c]pyridin-1(2H)-yl)methanone] the pEC50 was less than 4.00. Work on O=C(c1nsc2ccccc12)N1C[C@H]2C[N@]3CC[C@H]2[C@H]1C3 [Example 97, benzo[d]isothiazol-3-yl((3R,3aR,6S,7aS)-hexahydro-3,6-methanopyrrolo[2,3-c]pyridin-1(2H)-yl)methanone] yielded a pEC50 of 4.52. With O=C(c1ccc(Cl)cc1)N1C[C@H]2C[N@]3CC[C@H]2[C@H]1C3 [Example 98, (4-chlorophenyl) ((3R,3aR,6S,7aS)-hexahydro-3,6-methanopyrrolo[2,3-c]pyridin-1(2H)-yl)methanone] the pEC50 was less than 4.00.

Same assay, conditions: Table 3, agonist Ca2+ flux, read-out: FLIPR α7 (EC50)
O=C(c1n[nH]c2ccccc12)N1C[C@@H]2C[N@@]3CC[C@@H]2[C@@H]1C3 [Example 87, ((3S,3aS,6R,7aR)-hexahydro-3,6-methanopyrrolo[2,3-c]pyridin-1(2H)-yl)(1H-indazol-3-yl)methanone] was tested, and the pEC50 was 6.43.
